Laboratory results reported in US12268727B2, “Bioactive polypeptides for improvements in plant protection, growth and productivity” (priority 2017, dated 2025).

What was measured:
[1] = tested on: reactive oxygen species (ROS) production in tomato leaf tissue; experiment: ROS activity assay in tomato leaf tissue; format: cell-based
Protocol: Tomato leaves were excised from 4-week-old plants using a cork borer to generate 4 mm disks. Each disc was cut in half using the edge of a razor blade, and then each disc half was floated on 150 μL of water in a 96-well plate to rest overnight. The next day, the water was removed from each well just prior to polypeptide treatment. The Flg polypeptides as described in Table 66 were added to water to bring them to a final concentration of 5 nM (Table 67) and 100 nM (Table 68) in solution with luminol and HRP before adding to each treatment well. To maintain activity, the polypeptides were stored in small aliquots to avoid multiple freezing and thawing. All dilutions to obtain working concentrations were done in ultrapure water. Polypeptide solutions were stored at −20° C. for short term usage or −80° C. for long term storage. RLU values and relative ROS activity (Tables 67, 68) is reported as the average of 4 measurements.

soybean = experiment: Foliar application to soybean in growth room, plant height (non-stress, heat and water deficit stress); format: in vivo; conditions: 300 nM + 0.1% ALLIGARE SURFACE
Protocol: Ec.Flg22 (SEQ ID NO: 527) was applied to soybean (Beck's 297NR).
Plant height (cm) was measured just prior to the foliar application delivered at 3 weeks and then again 2 weeks later when the plants were 5-weeks-old. Two replicate trials were conducted using 18 plants per trial.
Soybean plants were grown as described in Example 6. The At.PSKα polypeptide (SEQ ID NO: 598) was applied as a foliar spray to the plants at the V1-V4 stage. Soybean plants treated with foliar applications of At.PSKα and control plants treated with water and surfactant alone were then grown in conditions described in Examples 7-9 that produced a non-stress and stress (heat and water deficit) environments. Table 37 describes the percentage change or increase in height reported for soybean plants treated with At.PSKα as a foliar spray at the V1-V4 growth stage.
RHPP bioactive priming polypeptide (SEQ ID NO: 600) was also applied as foliar treatment to R1 stage hybrid soybean (Beck's 297R4) with 0.1% (v/v) non-ionic surfactant ([…] SURFACE) using a spray bottle delivering approximately 1.2 ml/plant. This experiment was performed to look at the effects of RHPP on plant growth and was conducted using a total of 18 plants per treatment group. […] R1 stage soybean plants were treated with nothing (non-treated control), […] SURFACE surfactant applied at a concentration of 0.1% (v/v) or the RHPP polypeptide (300 nM) applied in combination with […] SURFACE surfactant (0.1% v/v). Height for each plant was recorded at the time of spray and again at 16 days post foliar application and average growth parameters were compared between foliar treatments (Table 39).

| Substance | ROS response ([1]; 5 nM) | ROS response ([1]; 100 nM) | Average RLU value (5 nM Flg polypeptide) ([1]; tomato leaf discs, 5 nM, average of 4 measurements) [RLU] | Average RLU value with 100 nM Flg polypeptide ([1]; tomato leaf discs, 100 nM (each, in the combination)) | plant height and change in plant height vs surfactant alone and non-treated (soybean; R1, 16 days post application) | Height (cm) (soybean; soybean Beck's 297R4, R1 stage, 16 days post foliar application, n = 18) | Change in height (cm) (soybean; soybean Beck's 297R4, R1 stage, spray to 16 days post application, n = 18) |
| --- | --- | --- | --- | --- | --- | --- | --- |
| Bt.4Q7Flg22: Flg22 polypeptide (22 amino acids) from flagellin of Bacillus thuringiensis strain 4Q7 (DRLSSGKRINSASDDAAGLAIA; listed as Bacillus thuringiensis) | very low ROS response | high response | 33118 | 2,118,932 (−) RLU | – | – | – |
| GGIRAAPTGNER (Glycine max) [RHPP, Root Hair Promoting Peptide from Glycine max] | – | – | – | – | increased plant growth (plant height) | 19.9 | 4.6 |
